Source: ChEMBL document CHEMBL1201862, “PubChem BioAssay data set” (2004)
One block for each compound: values may come before it. The source made the active and inactive calls.

Assays:
[1] = blockade of melanocortin 4 receptor signaling – cell-based, plate reader, cherry pick, counter-screen for LGR2 antagonist project, dose response (AID 743444); format: functional;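 also: transfected HEK 293 cells stimulated with alpha-MSH peptide; potency of inhibitors of the alpha-MSH evoked signal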
[2] = HIV-1 AD8 envelope cell-cell fusion blockers – cherry-pick, dose response (AID 652062); format: functional, cell-based;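 also: luciferase signal from cell-cell fusion driven by HIV-1 clade B AD8 Env; potency is for inhibitors of fusion seen as a drop in luminescence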
[3] = viability loss in CEM21 cells – cell-based, CellTiter-Glo luminescence, cherry-picked, cytotoxicity control for viral fusion inhibitor project, dose response (AID 652042); format: functional;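 also: potency for signal decrease meaning cytotoxicity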
[4] = blockers of HIV-1 envelope-mediated cell-cell fusion – cherry-pick, dose response (AID 652057); format: functional, cell-based
[5] = toxicity toward HepG2 liver cells – cell-based, plate reader, cherry-pick, antagonist series, cytotoxicity control, dose response (AID 743416); format: functional
[6] = off-target signal loss in HeLa-CEM21 co-culture – HeLa F-luc CTL cells, cherry-picked, counter-screen for HIV-1 Env fusion inhibitor project, dose response (AID 652040); format: functional, cell-based;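 also: potency for signal decrease marking cytotoxic or nonspecific inhibition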
[7] = blockers of HIV-1 ZM109 envelope-driven cell-cell fusion – HeLa effector, CEM target cells, luciferase, cherry-pick, dose response (AID 652058); format: functional, cell-based;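 also: luciferase signal from HIV-1 Env mediated cell-cell fusion of effector and target cells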
[8] = A549 cell cytotoxicity, dose response, cytotoxicity control, plate reader, cherry-pick, antagonist series (AID 743412); format: functional, cell-based
[9] = blockers of bursicon-stimulated LGR2 cAMP reporter – cell-based, HEK293, CRE-luciferase reporter, cherry pick, set 2, dose response (AID 743343); format: functional;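 also: transfected cells were stimulated with diluted bursicon conditioned medium after compound addition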
[10] = viability loss in HEK293 cells – cell-based, plate reader, cherry-picked samples, cytotoxicity control, dose response (AID 743446); format: functional
Steroidogenic factor 1 = Steroidogenic factor 1 (Homo sapiens, UniProt Q13285); test: Counterscreen for inverse agonists of the liver receptor homolog-1 (LRH-1; NR5A2): Luminescence-based cell-based high throughput dose response assay to identify inverse agonists of the Steroidogenic Factor 1 Nuclear Receptor (SF1; NR5A1).; format: functional
[11] = nonselective StAR promoter luciferase inhibitors – cell-based, luminescence, luciferase reporter, counter-screen for LRH-1 inverse agonist project, dose response (AID 651969); format: functional
[12] = molecular target: Nuclear receptor subfamily 5 group A member 2 (Homo sapiens, UniProt O00482); format: functional, cell-based;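 also: HEK293T cells transfected with LRH-1 and a StAR promoter luciferase reporter; potency for inhibitors that lower LRH-1 driven reporter light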
[13] = Luminescence Cell-Based Dose Retest to Confirm Inhibitors of Cancer Stem Cells. [Related pubchem assays (depositor defined):AID2717, AID2721]; format: functional; conditions: Homo sapiens
[14] = inhibition of ADAM10 peptide cleavage – biochemical, FRET peptide substrate, recombinant human ADAM10, selectivity assay for ADAM17 exosite inhibitor project, dose response (AID 743259);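 also: ADAM10 enzyme cleaving a FRET peptide substrate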
[15] = molecular target: Disintegrin and metalloproteinase domain-containing protein 17 (Homo sapiens, UniProt P78536); test: exosite inhibitors of ADAM17, dose response, biochemical (AID 743260)
[16] = molecular target: Metabotropic glutamate receptor 5 (Rattus norvegicus, UniProt P31424); test: Identification of a glycine sulfonamide based non-MPEP site positive allosteric potentiator (PAM) of mGlu5 (calcium_assay).; format: functional
[17] = activation of miR-122 Renilla sensor silencing – cell-based, Huh7 psiCHECK-miR122, Renilla luciferase, cherry-picked, dose response (AID 651956); format: functional;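 also: huh7 hepatoma cells stably carrying a psiCHECK-2 miR-122 sensor plasmid; renilla luciferase signal reporting endogenous miR-122 activity after 48 h compound exposure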
[18] = general mammalian cell viability loss – inhibitor set, cherry-pick, set 2, cytotoxicity control for miR-122 modulator project, dose response (AID 720697); format: functional, cell-based
[19] = molecular target: T1, Corticotropin-releasing factor receptor 2/Corticotropin-releasing factor-binding protein (Homo sapiens, UniProt P24387+Q13324); test: activators of CRF receptor 2 with binding protein – uHTS hits, confirmation (AID 602473); format: functional; conditions: read-out: EC50_Mean
T1 sequence (Q13324 whole entry): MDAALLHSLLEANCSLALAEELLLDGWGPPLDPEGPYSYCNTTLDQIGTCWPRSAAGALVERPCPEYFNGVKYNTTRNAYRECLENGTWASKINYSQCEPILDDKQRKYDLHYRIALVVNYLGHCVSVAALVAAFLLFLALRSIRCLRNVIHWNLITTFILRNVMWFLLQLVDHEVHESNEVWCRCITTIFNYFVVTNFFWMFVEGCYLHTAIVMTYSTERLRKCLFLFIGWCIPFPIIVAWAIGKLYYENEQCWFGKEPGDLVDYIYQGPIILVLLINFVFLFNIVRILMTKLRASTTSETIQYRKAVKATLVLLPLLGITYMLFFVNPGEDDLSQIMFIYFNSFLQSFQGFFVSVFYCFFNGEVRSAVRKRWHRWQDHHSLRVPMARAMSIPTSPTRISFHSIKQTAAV
T1 sequence (P24387 whole entry): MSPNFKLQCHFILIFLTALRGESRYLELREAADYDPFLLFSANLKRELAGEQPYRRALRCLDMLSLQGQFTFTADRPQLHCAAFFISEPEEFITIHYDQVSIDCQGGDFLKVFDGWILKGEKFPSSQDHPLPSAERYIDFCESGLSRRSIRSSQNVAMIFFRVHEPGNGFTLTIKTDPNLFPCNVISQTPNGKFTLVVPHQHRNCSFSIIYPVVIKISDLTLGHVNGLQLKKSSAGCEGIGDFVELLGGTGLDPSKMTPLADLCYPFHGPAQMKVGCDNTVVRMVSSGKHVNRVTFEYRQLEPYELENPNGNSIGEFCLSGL

[20] = molecular target: T1, Corticotropin-releasing factor receptor 2/Corticotropin-releasing factor-binding protein; test: Dose Response confirmation of uHTS hits for small molecule antagonists of the CRF-binding protein and CRF-R2 receptor complex.; format: functional; conditions: read-out: IC50_Mean
Streptococcus = test: GAS UMAA2166 growth inhibition – luminescence, BacTiterGlo, counter-screen for streptokinase expression inhibitor project, dose response (AID 1915); format: functional, organism-based;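 also: potency for reduction of bacterial viability or growth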
[21] = test system: Streptococcus sp. 'group A'; test: Streptococcus pyogenes SK(-)GAS viability under kanamycin – luminescence, BacTiterGlo, confirmation, counter-screen for streptokinase expression inhibitor project, dose response (AID 1900); format: functional, organism-based
[22] = blockers of CRF-binding protein–CRF-R2 complex – cell-based, uHTS hits, 384-well, dose response (AID 651639); format: functional, Homo sapiens; conditions: read-out: IC50_Mean
Galanin receptor type 3 = molecular target: T2, Galanin receptor type 3 (Homo sapiens, UniProt O60755); test: Fluorescence-based cell-based primary high throughput dose response assay to identify antagonists of the Galanin Receptor 3 (GalR3).; format: functional
T2 sequence (O60755 whole entry): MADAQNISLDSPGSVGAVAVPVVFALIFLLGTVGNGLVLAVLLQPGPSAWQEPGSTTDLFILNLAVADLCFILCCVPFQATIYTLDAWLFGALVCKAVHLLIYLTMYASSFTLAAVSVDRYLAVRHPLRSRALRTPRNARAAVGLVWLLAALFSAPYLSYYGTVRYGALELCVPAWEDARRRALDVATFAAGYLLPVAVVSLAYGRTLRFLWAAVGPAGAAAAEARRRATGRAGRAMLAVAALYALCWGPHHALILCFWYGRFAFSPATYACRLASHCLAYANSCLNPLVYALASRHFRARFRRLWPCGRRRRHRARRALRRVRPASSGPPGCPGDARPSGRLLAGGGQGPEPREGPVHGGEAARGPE

cells = format: functional, cell-based; conditions: HEK-CNG
Leucine aminopeptidase = molecular target: T3, Leucine aminopeptidase (Plasmodium falciparum 3D7, UniProt Q8IL11); test: P. falciparum M17LAP inhibitors, primary screen, biochemical, fluorogenic H-Leu-NHMec substrate, 1536-well (AID 1619); format: functional
T3 sequence (Q8IL11 whole entry): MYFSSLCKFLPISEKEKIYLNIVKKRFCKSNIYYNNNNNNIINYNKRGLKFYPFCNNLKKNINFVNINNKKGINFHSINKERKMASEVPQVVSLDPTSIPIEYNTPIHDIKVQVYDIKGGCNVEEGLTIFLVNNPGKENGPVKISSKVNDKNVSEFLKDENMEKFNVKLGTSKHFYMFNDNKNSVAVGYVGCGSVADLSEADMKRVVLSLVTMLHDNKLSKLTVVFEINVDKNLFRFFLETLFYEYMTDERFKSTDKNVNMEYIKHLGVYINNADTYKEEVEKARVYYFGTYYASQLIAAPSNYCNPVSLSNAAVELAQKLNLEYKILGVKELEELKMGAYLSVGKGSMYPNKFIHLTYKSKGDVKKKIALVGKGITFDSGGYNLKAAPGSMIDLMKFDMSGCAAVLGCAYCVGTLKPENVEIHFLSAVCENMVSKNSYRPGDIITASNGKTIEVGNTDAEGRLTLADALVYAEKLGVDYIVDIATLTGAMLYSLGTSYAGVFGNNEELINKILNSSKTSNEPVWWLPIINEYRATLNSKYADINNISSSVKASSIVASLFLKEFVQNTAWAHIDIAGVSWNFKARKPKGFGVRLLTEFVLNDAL

Disintegrin and metalloproteinase domain-containing protein 17, sequence (P78536 whole entry, the tested form may be a part): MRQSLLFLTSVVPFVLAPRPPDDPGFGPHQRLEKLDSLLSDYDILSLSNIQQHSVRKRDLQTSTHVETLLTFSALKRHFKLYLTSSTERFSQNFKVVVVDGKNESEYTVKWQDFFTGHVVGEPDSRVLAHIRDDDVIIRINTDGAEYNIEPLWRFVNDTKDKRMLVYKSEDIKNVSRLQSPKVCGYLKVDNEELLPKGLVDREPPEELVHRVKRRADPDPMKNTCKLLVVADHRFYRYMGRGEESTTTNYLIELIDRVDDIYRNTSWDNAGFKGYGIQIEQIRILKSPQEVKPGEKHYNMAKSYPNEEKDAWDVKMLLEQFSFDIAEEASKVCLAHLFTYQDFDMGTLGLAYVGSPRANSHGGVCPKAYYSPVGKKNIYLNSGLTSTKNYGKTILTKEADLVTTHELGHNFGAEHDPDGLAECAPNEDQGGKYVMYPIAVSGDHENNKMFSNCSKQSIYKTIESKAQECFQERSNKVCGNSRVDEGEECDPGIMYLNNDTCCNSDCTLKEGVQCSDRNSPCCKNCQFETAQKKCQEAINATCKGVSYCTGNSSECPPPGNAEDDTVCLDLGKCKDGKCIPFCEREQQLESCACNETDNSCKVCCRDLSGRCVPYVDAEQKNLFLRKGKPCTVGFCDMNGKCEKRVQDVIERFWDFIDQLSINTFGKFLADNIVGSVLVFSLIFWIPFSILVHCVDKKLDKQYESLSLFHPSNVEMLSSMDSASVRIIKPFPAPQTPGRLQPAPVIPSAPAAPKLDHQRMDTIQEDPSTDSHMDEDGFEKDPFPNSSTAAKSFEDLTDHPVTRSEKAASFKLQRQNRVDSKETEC
Nuclear receptor subfamily 5 group A member 2, sequence (O00482 whole entry): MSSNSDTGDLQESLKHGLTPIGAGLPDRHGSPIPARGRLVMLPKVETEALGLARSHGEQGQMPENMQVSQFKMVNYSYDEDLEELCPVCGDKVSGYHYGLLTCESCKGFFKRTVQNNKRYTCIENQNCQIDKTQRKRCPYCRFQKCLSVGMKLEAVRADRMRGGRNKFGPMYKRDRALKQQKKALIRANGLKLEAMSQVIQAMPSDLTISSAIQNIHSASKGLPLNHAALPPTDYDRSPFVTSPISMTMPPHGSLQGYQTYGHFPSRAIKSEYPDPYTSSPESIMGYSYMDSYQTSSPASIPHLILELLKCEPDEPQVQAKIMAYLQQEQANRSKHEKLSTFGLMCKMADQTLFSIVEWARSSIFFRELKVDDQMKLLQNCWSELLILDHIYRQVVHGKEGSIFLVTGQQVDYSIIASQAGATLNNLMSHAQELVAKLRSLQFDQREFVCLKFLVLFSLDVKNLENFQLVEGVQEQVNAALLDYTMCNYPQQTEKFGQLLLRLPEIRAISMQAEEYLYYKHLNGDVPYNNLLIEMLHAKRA
Steroidogenic factor 1, sequence (Q13285 whole entry): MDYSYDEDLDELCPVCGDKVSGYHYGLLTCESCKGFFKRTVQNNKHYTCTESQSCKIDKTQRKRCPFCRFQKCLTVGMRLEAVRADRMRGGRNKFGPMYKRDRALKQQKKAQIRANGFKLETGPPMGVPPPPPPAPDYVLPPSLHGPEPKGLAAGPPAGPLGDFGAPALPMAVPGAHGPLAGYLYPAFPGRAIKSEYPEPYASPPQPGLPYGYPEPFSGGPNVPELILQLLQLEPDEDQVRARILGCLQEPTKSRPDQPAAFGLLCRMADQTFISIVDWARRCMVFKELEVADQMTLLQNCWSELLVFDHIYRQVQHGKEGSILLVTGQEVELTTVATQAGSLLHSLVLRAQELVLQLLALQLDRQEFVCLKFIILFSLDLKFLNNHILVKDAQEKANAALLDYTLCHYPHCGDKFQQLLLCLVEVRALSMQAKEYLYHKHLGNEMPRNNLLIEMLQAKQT
Metabotropic glutamate receptor 5, sequence (P31424 whole entry): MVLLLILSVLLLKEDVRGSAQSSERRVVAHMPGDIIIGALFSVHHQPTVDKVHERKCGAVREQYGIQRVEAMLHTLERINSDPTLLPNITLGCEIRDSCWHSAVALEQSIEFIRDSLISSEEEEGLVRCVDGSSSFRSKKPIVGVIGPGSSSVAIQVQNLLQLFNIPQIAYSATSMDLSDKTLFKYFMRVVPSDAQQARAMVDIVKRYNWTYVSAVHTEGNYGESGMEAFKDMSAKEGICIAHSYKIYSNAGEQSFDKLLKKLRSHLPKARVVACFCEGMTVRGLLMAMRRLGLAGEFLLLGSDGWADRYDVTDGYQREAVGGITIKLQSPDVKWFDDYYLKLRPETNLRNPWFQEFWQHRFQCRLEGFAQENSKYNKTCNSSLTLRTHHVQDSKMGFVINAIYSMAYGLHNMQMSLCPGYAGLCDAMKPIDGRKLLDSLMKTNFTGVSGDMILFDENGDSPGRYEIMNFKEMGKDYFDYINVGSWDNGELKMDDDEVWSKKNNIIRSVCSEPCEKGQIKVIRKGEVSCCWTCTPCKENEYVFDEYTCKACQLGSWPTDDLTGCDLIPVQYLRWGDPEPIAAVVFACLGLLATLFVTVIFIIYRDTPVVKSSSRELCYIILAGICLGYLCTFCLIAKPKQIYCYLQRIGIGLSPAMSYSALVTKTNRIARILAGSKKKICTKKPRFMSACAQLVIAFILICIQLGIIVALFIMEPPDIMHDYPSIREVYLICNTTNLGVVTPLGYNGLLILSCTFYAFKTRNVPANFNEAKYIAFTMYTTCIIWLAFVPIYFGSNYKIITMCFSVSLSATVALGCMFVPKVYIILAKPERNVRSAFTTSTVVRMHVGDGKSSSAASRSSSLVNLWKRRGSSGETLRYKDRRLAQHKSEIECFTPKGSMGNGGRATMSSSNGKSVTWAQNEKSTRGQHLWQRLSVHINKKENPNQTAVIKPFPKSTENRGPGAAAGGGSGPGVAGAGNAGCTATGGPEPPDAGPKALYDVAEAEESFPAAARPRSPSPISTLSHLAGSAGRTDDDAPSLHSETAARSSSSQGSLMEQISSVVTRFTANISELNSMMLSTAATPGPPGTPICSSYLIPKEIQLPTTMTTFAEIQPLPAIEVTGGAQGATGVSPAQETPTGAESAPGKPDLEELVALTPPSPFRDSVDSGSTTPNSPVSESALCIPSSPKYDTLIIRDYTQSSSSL

SMILES: O=C(NC1CCCCC1)c1[nH]nc2c1CCCCC2
- AC50 [1]: 2.24 µM (active)
- AC50 [2]: 7.38 µM (active)
- AC50 [3]: 29.7 µM (active)
- AC50 [4]: 6.09 µM (active)
- AC50 [5]: > 52 µM (inactive)
- AC50 [6]: 13.8 µM (active)
- AC50 [7]: 16.3 µM (active)
- AC50 [8]: 37.1 µM (active)
- AC50 [9]: 3.2 µM (active)
- AC50 [10]: > 52 µM (inactive)

SMILES: CCc1cc(=O)oc2c(C)c(OCC(=O)NCCCN3CCCC3=O)ccc12
- IC50 (Steroidogenic factor 1): 35.9 µM (inactive)
- IC50 [11]: 35.9 µM (inactive)
- IC50 [12]: 35.9 µM (inactive)

SMILES: C/C(=N/Nc1ccc([N+](=O)[O-])cc1)c1ccc(C)cc1C
- AC50 [13]: 5.92 µM (active)
- IC50 [14]: 20.5 µM (inactive)
- IC50 [15]: > 69.5 µM (inactive)

- IC50 [15]: 24.9 µM (inactive)
SMILES: O=C(O)CCC(=O)c1c[nH]c2ccccc12
- IC50 [14]: > 69.5 µM (inactive)

- EC50 [16]: 0.049 µM
SMILES: CS(=O)(=O)N(CC(=O)Nc1ccccc1)c1ccccc1Cl

SMILES: CN(C)c1ncnc2c1ncn2C1OC(CO)C(O)C1O (stereo unspecified)
- AC50 [17]: 25.4 µM (active)
- AC50 [18]: 8.52 µM (active)

SMILES: O=[N+]([O-])c1ccc(-c2cc(O)n3nc(-c4ccc(F)cc4)cc3n2)cc1
- EC50 [19]: > 53 µM (inactive)
- IC50 [20]: 27.4 µM (active)
- EC50 (Streptococcus): 6.44 µM (active)
- EC50 [21]: 4.2 µM (active)
- IC50 [22]: 12.9 µM (active)

SMILES: O=C(Nc1ccc(Oc2ccccc2)cc1)c1csc(COCCO)n1
- IC50 (Galanin receptor type 3): 1.39 µM (active)
- EC50 (cells): > 29.9 µM (inactive)

- IC50 (Steroidogenic factor 1): 0.599 µM (active)
- IC50 (Leucine aminopeptidase): 10.2 µM (active)
- IC50 [12]: 1.54 µM (active)
SMILES: CCc1c(C)nc(SCC(=O)Nc2ccc3c(c2)OCCO3)[nH]c1=O
